{"source": "patent US11191760B2", "about": "“Compositions and methods for treating Helicobacter pylori infection” (priority 2016, dated 2021)", "format_in_all_cases": "cell-based", "key": {"AGS cells [1]": {"system": "AGS cells", "assay": "VacA-disrupted autophagy in AGS cells (LC3-II immunoblot, LC3 puncta)", "conditions": "for VacA-disrupted autophagy (LC3-II levels): FIG. 13", "protocol": "AGS cells incubated with VacA+ or VacA− CCMS for 3 to 4 hrs were then treated with 20 μM ML-SA1 or DMSO (vehicle) for an additional 3 hrs. Cell lysates were prepared and probed for the autophagy marker LC3-II and actin (loading control) (4A, left). Densitometry analysis (LC3-II/actin ratio) of 6 experiments is included on the right. […] Cells treated as indicated above were fixed and stained for LC3-11 (marker of autophagosomes) and cell nuclei (using DAPI). […] One representative image of 7 experiments is shown.\nTo validate the results obtained with ML-SA1 and confirm that VacA impairs TRPML1 activity, a new recently described TRPML1 agonist, MK6-83, was also evaluated in its ability to restore VacA-disrupted autophagy. To this end, AGS cells incubated with VacA+ or VacA− CCMS for 4 hours were treated with 20 μM ML-SA1, 10 μM MK6-83 or DMSO (vehicle) for additional 3 hour period. Cell lysates were prepared and assessed for LC3-II and actin as loading control. […] This example provides evidence that various TRPML1 agonists of different structures work in the same way by targeting TRPML1 to restore VacA-disrupted autophagy."}, "AGS cells [2]": {"system": "AGS cells", "assay": "VacA-induced vacuolation in AGS cells (Lamp1 staining)", "conditions": "20 μM for 3 hrs after 3 to 4 hrs VacA+ CCMS", "protocol": "AGS cells were incubated with CCMS from wild-type (VacA+) or mutant (VacA−) 60190 H. pylori for 3 to 4 hrs to induce vacuole formation. Cells were then treated with 20 μM of the TRPML1 agonist ML-SA1 or DMSO (vehicle) for an additional 3 hrs period prior to fixation and staining for Lamp1 and cell nuclei. […] Lamp1 staining in these TRPML1 treated cells was indistinguishable from VacA− CCMS control AGS cells. The experiment was repeated 8 times with similar results. One representative experiment is shown.\nML-SA1-treated VacA^+ AGS cells were indistinguishable from VacA^− control cells, displaying Lamp1 staining that resembled normal lysosome size and distribution."}, "AGS cells [3]": {"system": "AGS cells", "assay": "VacA-induced missorting of cathepsin D in AGS cells (Lamp1/cathepsin D staining)", "conditions": "20 μM for 4 hrs after overnight VacA+ CCMS", "protocol": "VacA− DMSO treated (control) cells display lysosomes filled with cathepsin D (same puncta obtained by Lamp1 and cathepsin D staining in the top 2 panels) whereas the big vacuoles generated by VacA+ incubation lack cathepsin D (middle panels). […] A higher magnification of a merged Lamp1/cathepsin D image is included on the right. One representative image of 6 experiments is shown.\n(§1) ML-SA1 administration to VacA^+ treated AGS cells recovered the delivery of cathepsin D to intracellular vacuoles (FIG. 5) and increased cathepsin D cellular levels as detected by immunoblotting (FIG. 6). Importantly, ML-SA1-treated cells also regained the ability to degrade the chromogenic substrate, DQ-BSA (FIG. 7). Altogether, these findings indicate that activation of the TRPML1 channel reverts formation of the VacA-induced non-degradative vacuole."}, "AGS cells [4]": {"system": "AGS cells", "assay": "Cathepsin D cellular levels in VacA+ CCMS treated AGS cells (Western blotting)", "conditions": "20 μM for 4 hrs after overnight VacA+ CCMS", "protocol": "AGS cells were incubated overnight with VacA− or VacA+ CCMS and treated with 20 μM ML-SA1 or DMSO (vehicle) for an additional 4 hrs period prior to lysate preparation. Cathepsin D and actin (loading control) levels were analyzed by Western blotting. […] One representative blot of 5 is shown (top panel). Densitometry analysis of cathepsin D levels (cathepsin D/actin ratio), normalized to the VacA− treated control is shown (bottom panel).\nas §1"}, "AGS cells [5]": {"system": "AGS cells", "assay": "Lysosomal degradative function in VacA+ CCMS treated AGS cells (red DQ-BSA)", "conditions": "20 μM for 3 hrs after overnight VacA+ CCMS, then red DQ-BSA 4 hrs", "protocol": "AGS cells were incubated overnight with VacA− or VacA+ CCMS and treated with 20 μM ML-SA1 or DMSO (vehicle) for an additional 3 hrs period prior to being loaded with red DQ-BSA for an additional 4 hrs. Cells were then fixed and stained with DAPI. Red DQ-BSA is a chromogenic substrate taken up by the cells by endocytosis. The dye generates a fluorescence signal once hydrolyzed in lysosomes. VacA− treated control cells efficiently degrade the substrate resulting in the detection of the fluorescence signal (lysosomal-like white puncta in 7A) whereas in VacA+ treated cells minimal to none fluorescence is detected (7B). […] The experiment was repeated 4 times with similar results.\nas §1"}, "[6]": {"system": "wild-type (VacA+) H. pylori", "assay": "Intracellular bacteria survival in infected AGS cells (gentamicin, CFU)"}, "AGS cells [7]": {"system": "AGS cells", "assay": "Vacuolation and cathepsin D missorting in AGS cells infected with wild-type (VacA+) H. pylori", "conditions": "treated for 4 hrs", "protocol": "A merged image is shown on the left, and the individual stainings corresponding to a higher magnification of the selected areas are included on the right. In the AGS cells infected with VacA− H. pylori mutant, the cathepsin D-filled lysosomes efficiently killed the intracellular bacteria (visualized by DAPI).\nTo this end, AGS cells infected with wild-type (VacA^+) or VacA^− mutant H. pylori were incubated with the cell-impermeant antibiotic gentamicin to kill extracellular bacteria. Intracellular bacteria were then retrieved and quantified. […] The big vacuoles, depleted of cathepsin D and filled with bacteria observed in the VacA^+ H. pylori infected cells (FIG. 9, inset), were reduced in size and filled with the hydrolytic enzyme after ML-SA1 treatment (FIG. 9, inset). Thus, the reduction in intracellular survival was a consequence of the destruction of the […] H. pylori protective niche (FIG. 8,9)."}, "human gastric organoids": {"system": "human gastric organoids", "assay": "VacA-induced large vacuoles and disrupted autophagy in human gastric organoids", "conditions": "16 h VacA+ culture supernatant", "protocol": "(11A) 3-dimensional human gastric organoids were treated 16 h with VacA− or VacA+ culture supernatant, then 5 h with vehicle (DMSO) or ML-SA1. One representative Western blot is shown and the corresponding quantification of the rescue in LC3-II by treatment with ML-SA1 from organoids derived from 5 different patients. (B) Representative confocal images taken from human gastric organoid monolayers treated for 16 h with VacA− or VacA+ culture supernatant, then 3 h with vehicle (DMSO) or ML-SA1. VacA-induced large vacuoles were visualized by Lamp1, autophagy by LC3 and nuclei by DAPI. Note large Lamp1 positive rings and LC3 puncta (arrows) in VacA+ DMSO that were rescued in VacA+ ML-SA1.\nOrganoids are 3-dimensional primary cell cultures that recapitulate the normal stomach physiology. These cultures are derived from stem cells located in the gastric gland that differentiate into complex structures containing the different cell types found in the stomach epithelium. To ensure findings from the cancerous gastric cell line (AGS) held true in a physiological model, organoids were derived from multiple different patients and treated with VacA."}}}
{"smiles": "Cc1ccc(S(=O)(=O)Nc2ccccc2N2CCCCC2)s1", "note": "[MK6-83]", "values": [{"measurement": "VacA-disrupted autophagy (LC3-II levels)", "setting": "AGS cells [1]; 10 μM for 3 hour after 4 hours VacA+ CCMS, AGS cells", "value": "restored the VacA-disrupted autophagy"}]}
{"smiles": "CC1CC(C)(C)N(C(=O)CN2C(=O)c3ccccc3C2=O)c2ccccc21", "note": "(centres unmarked) [ML-SA1]", "values": [{"measurement": "VacA-induced vacuolation (Lamp1 staining)", "setting": "AGS cells [2]", "value": "reversed the vacuolation"}, {"measurement": "VacA-disrupted autophagy (LC3-II levels)", "setting": "AGS cells [1]; 20 μM for 3 hour after 4 hours VacA+ CCMS, AGS cells", "value": "restored the VacA-disrupted autophagy"}, {"measurement": "autophagy marker LC3-II (LC3-II/actin ratio)", "setting": "AGS cells [1]; 20 μM for 3 hrs after 3 to 4 hrs VacA+ CCMS, AGS cell lysates, FIG. 4A", "value": "autophagy was restored"}, {"measurement": "accumulation of dysfunctional autophagosomes (LC3 puncta)", "setting": "AGS cells [1]; 20 μM for 3 hrs after VacA+ CCMS, AGS cells, staining, FIG. 4B", "value": "reversed the accumulation of dysfunctional autophagosomes"}, {"measurement": "cathepsin D sorting to lysosomes", "setting": "AGS cells [3]", "value": "restores cathepsin D sorting to lysosomes"}, {"measurement": "cathepsin D cellular levels (cathepsin D/actin ratio)", "setting": "AGS cells [4]", "value": "restored cathepsin D levels"}, {"measurement": "lysosomal degradative function (degradation of DQ-BSA)", "setting": "AGS cells [5]", "value": "restores the degradative capacity"}, {"measurement": "intracellular survival of wild-type (VacA+) H. pylori (CFU)", "setting": "[6]; 8 hrs infection, 20 μM for the last 3 hrs", "value": "reverted the enhanced intracellular survival"}, {"measurement": "intracellular survival of wild-type (VacA+) H. pylori (CFU)", "setting": "[6]; 24 hrs infection, 20 μM for the last 4 hrs", "value": "reverted the enhanced intracellular survival"}, {"measurement": "size of the vacuoles in VacA+ H. pylori infected cells", "setting": "AGS cells [7]; Lamp1 staining", "value": "causes a reduction in the size of the vacuoles"}, {"measurement": "cathepsin D in the vacuoles of VacA+ H. pylori infected cells", "setting": "AGS cells [7]; cathepsin D staining", "value": "now contain the lysosomal hydrolase cathepsin D"}, {"measurement": "VacA-induced large intracellular vacuoles (Lamp1)", "setting": "human gastric organoids; then 3 h compound, human gastric organoid monolayers", "value": "large vacuoles were reverted"}, {"measurement": "disrupted autophagy (LC3)", "setting": "human gastric organoids; then 5 h (3-dimensional organoids, LC3-II blot) or 3 h (monolayers) compound", "value": "autophagy was restored"}]}
